Reference: paper PMC12165799, “Antimicrobial peptide developed with machine learning sequence optimization targets drug resistant Staphylococcus aureus in mice” (The Journal of Clinical Investigation, 2025)
Like-named read-outs stand apart in the source and are kept apart here.

Assays:
[1] = test system: S. aureus MW2 24 h established biofilm; settings: 24 h treatment
Protocol: 346 plated onto TSA plates, and incubated plates at 37°C overnight. The next day, we counted the
347 viable bacterial colonies.
We used TSB medium containing
356 bacteria with water as the positive control, while TSB media with sterile water served as the
357 negative control. After incubation, we carefully removed the TSB medium and washed the wells
358 with PBS (Gibco, MD, USA) to remove loosely attached planktonic cells. We quantified the
359 biomass by staining the biofilms with crystal violet following an established protocol and
360 quantitated the concentration of peptide that inhibits 50% of biofilm formation (MBIC50)(8). We
361 measured the live cell count of the biofilms using XTT dye [2,3-bis(2-methyloxy-4-nitro-5-
362 sulfophenyl)-2H-tertazolium-5-carboxanilide] (ATCC, VA, USA). We calculated the percentage
363 of biofilm growth by normalizing to biofilm growth in wells containing bacteria without peptide
366 Disruption of S. aureus MW2 established biofilms
367 We evaluated the ability of the citropin 1.1-derived peptides to disrupt established biofilms
368 following an established protocol with modifications (5). We prepared exponential cultures of S.
369 aureus MW2 (adjusted to 1 × 10^6 CFU/ml) in TSB medium (supplemented with 0.2% glucose)
370 from overnight grown cultures. We added 100 µl of bacterial culture to flat-bottomed 96-well
371 polystyrene microtiter plates (Cat no. 3595, Corning, NY, USA). We then incubated the plates at
372 37°C for 24 hours in static conditions to allow biofilm formation. After incubation, we carefully
373 pipetted out the TSB medium and washed the wells with PBS (Gibco, MD, USA) to remove
374 loosely attached planktonic cells. We treated the established biofilms in each well with 10 µl of
375 serially diluted 10× peptide solution, followed by the addition of 90 μl TSB medium
376 (supplemented with 0.2% glucose). We incubated the plates for another 24 h at 37°C before
377 processing biomass and live-cell contents. We calculated the concentration of peptide that disrupts
378 50% of established biofilms (MBEC50).

[2] = test system: S. aureus MW2 membrane; assay: Propidium iodide-based membrane permeability; assay type: cell-based, Staphylococcus aureus; settings: S. aureus MW2, 60 minutes
Protocol: 484 min at room temperature in the dark based on a previously established protocol (8). We added 90
485 µl of the dye/bacteria mixture to 10 μl of serially diluted 10× peptide concentration in black, 96-
486 well plates (Cat. no. 3904, Corning, NY, USA) and incubated the plates for 1 hour at room
487 temperature. We measured the fluorescence with excitation and emission wavelengths of 485 nm
488 and 525 nm, respectively in endpoint assay mode using a SpectraMax i3x (Molecular Devices,
489 CA, USA) fluorescence reader.
490 Propidium iodide-based membrane permeability
491 We used a propidium iodide (Thermo Fisher Scientific, MA, USA) fluorescence-based
492 bacterial permeation assay to establish membrane-oriented interactions with the designed peptides
493 based on a previously established protocol (8). We prepared exponential phase S. aureus MW2
494 bacteria and diluted to OD600 = 0.4 in PBS. We added PI dye (final concentration = 2 µM) to the
495 bacteria in 1:10 serial dilutions in black, 96-well plates (Cat. no. 3904, Corning, NY, USA) and
496 incubated the plates for 1 hour at room temperature. We then measured the fluorescence with an
497 excitation wavelength of 584 nm and an emission wavelength of 620 nm in endpoint assay mode
498 using a SpectraMax i3x (Molecular Devices, CA, USA) fluorescence reader.
501 To determine the ATP leakage potential of the peptides, we employed a luciferase-based
502 assay(18). In brief, we washed exponential phase of S. aureus MW2 bacteria three times with PBS
503 (pH 7.4) and adjusted the washed cells to OD600 = 0.4 in PBS. Following treatment of the bacteria
504 with 32 µg/ml of CIT-8 peptide at 37°C for 30 min, we centrifuged the cells at 14,000× g for 5
505 min. We transferred 50 µl of each supernatant fraction to black, clear-bottom, 96-well plates

[3] = test system: MRSA (S. aureus MW2) biofilm; assay: Biofilm viability assay on solid support (MW2); assay type: cell-based, Staphylococcus aureus; settings: for Bacterial load of 24 hour established biofilm on solid membrane: S. aureus MW2, 24 h in PBS
[4] = test system: VRSA (S. aureus VRS1) biofilm; assay: Biofilm viability assay on solid support (VRS1); assay type: cell-based, Staphylococcus aureus; settings: for Bacterial load of 24 hour established biofilm on solid membrane: S. aureus VRS1, 24 h in PBS
[5] = test system: S. aureus MW2; assay: Minimal inhibitory concentration (MIC) assay, broth microdilution; assay type: cell-based, Staphylococcus aureus
Protocol: 300 Synthesis of peptides
302 Piscataway, NJ, USA).
305 Minimal inhibitory concentration (MIC) assay
We made serial dilutions of 10×
We determined the MIC using OD600
Accordingly, we added 150 mM NaCl,
319 established protocol (5).

[6] = 40 μg/mL, 24 h established biofilm

H-GLFKVIKKLLKVI-NH2 [CIT-8]
Established biofilm, biomass (crystal violet), percentage of untreated ([1]; 4 μg/ml, replicate 1): 131.685 | Established biofilm, live-cell viability (XTT), percentage of untreated ([1]; 4 μg/ml, replicate 1): 82.5027 | Established biofilm, biomass (crystal violet), percentage of untreated ([1]; 4 μg/ml, replicate 2): 134.586 | Established biofilm, live-cell viability (XTT), percentage of untreated ([1]; 4 μg/ml, replicate 2): 94.0114 | Established biofilm, biomass (crystal violet), percentage of untreated ([1]; 4 μg/ml, replicate 3): 61.6564 | Established biofilm, live-cell viability (XTT), percentage of untreated ([1]; 4 μg/ml, replicate 3): 89.5709 | Established biofilm, biomass (crystal violet), percentage of untreated ([1]; 8 μg/ml, replicate 1): 62.9601 | Established biofilm, live-cell viability (XTT), percentage of untreated ([1]; 8 μg/ml, replicate 1): 83.9897 | Established biofilm, biomass (crystal violet), percentage of untreated ([1]; 8 μg/ml, replicate 2): 123.287 | Established biofilm, live-cell viability (XTT), percentage of untreated ([1]; 8 μg/ml, replicate 2): 89.9036 | Established biofilm, biomass (crystal violet), percentage of untreated ([1]; 8 μg/ml, replicate 3): 70.3988 | Established biofilm, live-cell viability (XTT), percentage of untreated ([1]; 8 μg/ml, replicate 3): 92.7553 | Established biofilm, biomass (crystal violet), percentage of untreated ([1]; 16 μg/ml, replicate 1): 49.8211 | Established biofilm, live-cell viability (XTT), percentage of untreated ([1]; 16 μg/ml, replicate 1): 6.002 | Established biofilm, biomass (crystal violet), percentage of untreated ([1]; 16 μg/ml, replicate 2): 67.6508 | Established biofilm, live-cell viability (XTT), percentage of untreated ([1]; 16 μg/ml, replicate 2): 15.664 | Established biofilm, biomass (crystal violet), percentage of untreated ([1]; 16 μg/ml, replicate 3): 56.1605 | Established biofilm, live-cell viability (XTT), percentage of untreated ([1]; 16 μg/ml, replicate 3): 21.3742 | Established biofilm, biomass (crystal violet), percentage of untreated ([1]; 32 μg/ml, replicate 1): 28.3231 | Established biofilm, live-cell viability (XTT), percentage of untreated ([1]; 32 μg/ml, replicate 1): 9.9063 | Established biofilm, biomass (crystal violet), percentage of untreated ([1]; 32 μg/ml, replicate 2): 39.7878 | Established biofilm, live-cell viability (XTT), percentage of untreated ([1]; 32 μg/ml, replicate 2): 2.777 | Established biofilm, biomass (crystal violet), percentage of untreated ([1]; 32 μg/ml, replicate 3): 32.068 | Established biofilm, live-cell viability (XTT), percentage of untreated ([1]; 32 μg/ml, replicate 3): 4.02 | Concentration killing 50% of live cells in 24 h established biofilm ([1]; XTT): 12 µg/mL | MBEC50 (50% of biomass disrupted) ([1]; crystal violet, 24 h established biofilm): 24 µg/mL | Propidium iodide fluorescence (membrane permeation) [2]: increased fluorescence compared with untreated controls | Reduction of viable biofilm cells of MRSA in established biofilms ([3]; 40 μg/mL (abstract)): 3 log10 | Reduction of MRSA biofilm burden on solid membrane [3, 6]: 2.2 logs | Bacterial load of 24 hour established biofilm on solid membrane ([3]; 4 μg/ml, replicate 1): 2200000 | Bacterial load of 24 hour established biofilm on solid membrane ([3]; 4 μg/ml, replicate 2): 2000000 | Bacterial load of 24 hour established biofilm on solid membrane ([3]; 4 μg/ml, replicate 3): 3600000 | Bacterial load of 24 hour established biofilm on solid membrane ([3]; 4 μg/ml, replicate 4): 14000000 | Bacterial load of 24 hour established biofilm on solid membrane ([3]; 4 μg/ml, replicate 5): 8000000 | Bacterial load of 24 hour established biofilm on solid membrane ([3]; 4 μg/ml, replicate 6): 3800000 | Bacterial load of 24 hour established biofilm on solid membrane ([3]; 40 μg/ml, replicate 1): 200000 | Bacterial load of 24 hour established biofilm on solid membrane ([3]; 40 μg/ml, replicate 2): 400000 | Bacterial load of 24 hour established biofilm on solid membrane ([3]; 40 μg/ml, replicate 3): 800000 | Bacterial load of 24 hour established biofilm on solid membrane ([3]; 40 μg/ml, replicate 4): 200000 | Bacterial load of 24 hour established biofilm on solid membrane ([3]; 40 μg/ml, replicate 5): 600000 | Bacterial load of 24 hour established biofilm on solid membrane ([3]; 40 μg/ml, replicate 6): 200000 | Reduction of viable biofilm cells of VRSA in established biofilms ([4]; 40 μg/mL (abstract)): 4 log10 | Reduction of VRSA biofilm burden on solid membrane [4, 6]: 3.8 logs | Bacterial load of 24 hour established biofilm on solid membrane ([4]; 4 μg/ml, replicate 1): 4000000 | Bacterial load of 24 hour established biofilm on solid membrane ([4]; 4 μg/ml, replicate 2): 80000000 | Bacterial load of 24 hour established biofilm on solid membrane ([4]; 4 μg/ml, replicate 3): 14000000 | Bacterial load of 24 hour established biofilm on solid membrane ([4]; 4 μg/ml, replicate 4): 40000000 | Bacterial load of 24 hour established biofilm on solid membrane ([4]; 4 μg/ml, replicate 5): 2000000 | Bacterial load of 24 hour established biofilm on solid membrane ([4]; 4 μg/ml, replicate 6): 20000000 | Bacterial load of 24 hour established biofilm on solid membrane ([4]; 40 μg/ml, replicate 1): 16000 | Bacterial load of 24 hour established biofilm on solid membrane ([4]; 40 μg/ml, replicate 2): 6000 | Bacterial load of 24 hour established biofilm on solid membrane ([4]; 40 μg/ml, replicate 3): 2400 | Bacterial load of 24 hour established biofilm on solid membrane ([4]; 40 μg/ml, replicate 4): 18000 | Bacterial load of 24 hour established biofilm on solid membrane ([4]; 40 μg/ml, replicate 5): 12000 | Bacterial load of 24 hour established biofilm on solid membrane ([4]; 40 μg/ml, replicate 6): 2200 | MIC, Medium only ([5]; S. aureus MW2, TSB): 4 µg/mL | MIC + ZnSO4 (8 μM) ([5]; S. aureus MW2, TSB + 8 μM ZnSO4): 4 µg/mL | MIC + MgSO4 (1 mM) ([5]; S. aureus MW2, TSB + 1 mM MgSO4): 4 µg/mL | MIC + CaCl2 (2.5 mM) ([5]; S. aureus MW2, TSB + 2.5 mM CaCl2): 4 µg/mL | MIC + NaCl (150 mM) ([5]; S. aureus MW2, TSB + 150 mM NaCl): 4 µg/mL | MIC + human serum (5%) ([5]; S. aureus MW2, TSB + 5% human serum): 8 µg/mL | MIC + human serum (10%) ([5]; S. aureus MW2, TSB + 10% human serum): 8 µg/mL | Increase of MIC in human serum ([5]; S. aureus MW2, 5%–10% human serum): 2 fold | MIC SA ([5]; S. aureus MW2, broth microdilution, TSB, 1 × 10^6 CFU/ml, 37°C 18 h, OD600, duplicate): 4 µg/mL
